Laboratory results as given in patent US20250346629A1, “USE OF D-ENANTIOMERIC PEPTIDE LIGANDS OF MONOMERIC ALPHA-SYNUCLEIN FOR THE THERAPY OF VARIOUS SYNUCLEINOPATHIES” (PRIAVOID GMBH, priority 2021, published 2025).
Square brackets hold non-standard residues; d marks the D form. Peptide text beside a SMILES is read from it.

Assays:
[1] = Solubility of D-peptides in buffer (UV-vis of supernatant after centrifugation); format: physicochemical; conditions: different buffers including PBS, aqueous buffer; different buffer conditions including PBS pH 7.4; 1 h at 37° C., 20 800×g centrifugation; read-out: starting concentration up to which the compound remained completely in the supernatant
Description: D-enantiomeric peptides with C-terminal amidation were acquired from CASLO (CASLO, DK) as a lyophilized chloride salt powder having a purity of >95%.

α-syn = α-syn (Homo sapiens, UniProt P37840); experiment: Kinetic single-cycle SPR assay with α-syn and immobilized peptides, CMD200M (FIG. 11); format: binding; conditions: kinetic 1:1 interaction model
Experimental: The measurements were carried out using an 8K-Biacore device (Cytiva, USA). The interactions were measured using single-cycle kinetics experiments. In all assays, the peptide compounds were immobilized as ligands on the sensor surface and recombinant α-syn was injected into the flow as the analyte. […] Surface quenching was carried out with 1 M ethanolamine at pH 8.3. Unless stated otherwise, the kinetic experiments were carried out at a flow rate of 30 μl/min in PBS, pH 7.4. The surface was regenerated between cycles using 30 s injections of 2 M Gua-HCl at 30 μl/min. Data evaluation was performed using the evaluation software Biacore insight v3.0 (Cytiva, USA).
The experiment was carried out as an individual measurement.

15N-labeled α-syn = 15N-labeled α-syn (Homo sapiens, UniProt P37840); experiment: NMR analysis (HSQC, PRE) of 15N-labeled α-syn with SVD-1a (FIG. 12); format: binding; conditions: 25 μM α-syn : SVD-1a 1:1, PBS pH 7.4, 10° C.
Experimental: Analogs of SVD-1a spin-labeled with nitroxyl radicals were produced by reacting (1-oxyl-2,2,5,5-tetramethyl-Δ3-pyrroline-3-methyl) methanethiosulfonate (MTSL) (Toronto Research Chemicals, USA) with SVD-1a_Cys, leading to covalent bonding of the nitroxyl radical spin label MTSL to the C-terminal D-cysteine residue. A fivefold molar excess of MTSL relative to the peptide, i.e. ˜4 mg MTSL (˜15 μmol) was dissolved in 90 μl N,N-dimethylformamide (DMF) and mixed with 810 μl 200 mM HEPES/NaOH buffer, pH 7.6. The solution was then added to ˜5 mg (˜3 μmol) of lyophilized SVD-1a_Cys. […]
The samples were produced at final concentrations of 25 μM full-length ^15N-labeled acetyl-α-syn in the absence (reference) and in the presence of an equimolar amount of SVD-1a (not isotope-labeled, therefore invisible to NMR) in PBS buffer, pH 7.4, with addition of 5% D2O as internal reference. 2D-^1H-^15N-HSQC spectra were recorded back-to-back with a Bruker AVANCE NEO spectrometer (Bruker, USA) at 1200 MHz proton Larmor frequency. […]
The NMR datasets were processed using the Bruker TopSpin software (Version 4.1.1) and visualized using CcpNmr Analysis (v2.4.2) (50). […] From the residue-specific changes in chemical shift in the ^1H and ^15N dimensions, an absolute change in chemical shift was calculated according to the following formula: […]

PC12 cells = format: cell-based; conditions: rat, 24 h, 0.5 μM
Experimental: PC12 cells (Leibniz-Institut DSMZ, GE) were cultured at 37° C. on a collagen A-coated (Biochrom GmbH, GE) tissue culture flask in RPMI 1640 medium, supplemented with 5% fetal calf serum and 10% horse serum in an atmosphere humidified to 95% with 5% CO2. 10 000 cells per well in a volume of 100 μl were seeded into collagen A-coated 96-well plates (Thermo Fisher Scientific, USA and incubated for 24 hours at 37° C. and 300 rpm in a thermocycler.
Furthermore, 15 μM of the peptides alone, cell media, buffer without peptide and 0.1% Triton X-100 (cytotoxic compound) were used as controls. After further incubation in a 95% humidified atmosphere with 5% CO2 at 37° C. for 24 hours, the viability of the cells was measured using the Cell Proliferation Kit I (MTT) (Roche Applied Science, CH), following the manufacturer's protocol.
The MTT-formazan product was quantified by measuring the absorbance at 570 nm, corrected by subtracting the absorbance at 660 nm, in a FluoroStar Optima plate reader (BMG labtech, GE). All results were normalized to untreated cells grown only in medium. The significance test was carried out by one-way ANOVA with Bonferroni post-hoc analysis (OriginPro 2020, OriginLab, USA; n=4).
The significance test was carried out by one-way ANOVA with Bonferroni post-hoc analysis: […], ***p≤0.01. The means are stated±SD (n=4).

In the case of `CC[C@@H](C)[C@@H](NC(=O)[C@@H](Cc1c[nH]cn1)NC(=O)[C@@H](CCC(=O)O)NC(=O)[C@@H](CCC(N)=O)NC(=O)[C@@H](Cc1c[nH]c2ccccc12)NC(=O)[C@@H](Cc1ccc(O)cc1)NC(=O)[C@H](NC(=O)[C@@H](CCC(=O)O)NC(=O)[C@@H](Cc1c[nH]cn1)NC(=O)[C@H](NC(=O)[C@H]1CCCN1C(=O)[C@@H](CC(C)C)NC(=O)[C@H](N)CCCNC(=N)N)[C@H](C)O)[C@H](C)O)C(=O)N[C@H](Cc1c[nH]c2ccccc12)C(=O)N[C@H](Cc1c[nH]cn1)C(=O)N[C@H](C)C(=O)N[C@H](CCCNC(=N)N)C(=O)N[C@H](CCCNC(=N)N)C(=O)N[C@H](CCCNC(=N)N)C(=O)N[C@H](CCCNC(=N)N)C(=O)N[C@H](CCCNC(=N)N)C(N)=O` [SVD-1a, rlpthetywqehiwharrrrr] (H-[dR][dL][dP][dT][dH][dE][dT][dY][dW][dQ][dE][dH][dI][dW][dH][dA][dR][dR][dR][dR][dR]-NH2), the solubility at 1 h [1] is reported as at least 1000 µM, the Kd (α-syn; PBS 7.4, individual measurement) is reported as 0.1 nM and the koff (α-syn; PBS 7.4, as printed for SVD-1a) is reported as 3.13e-05 s⁻¹. The “binding region on α-syn (PRE intensity ratios)” value (15N-labeled α-syn) was “somewhat more pronounced (transient) bonding interaction of SVD-1a with residues in the C-terminal region of α-syn” and the “cells saved (cell viability)” value (PC12 cells) was 82%.
